Values after ≈ are worked out from the molar mass of the structure shown. Where a SMILES comes first, the peptide text is derived from it. The star is where a group is joined. Butanoyl(2,2-Me2) = CCC(C)(C)C(=O)*; Octanoyl(6-Me) = CCC(C)CCCCC(=O)*
Columns and labels:
[1] = tested on: Pseudomonas aeruginosa PAO1 planktonic cells; assay type: cell-based; settings: PAO1, 24 h
Protocol: Minimal inhibitory concentrations (MIC) of the peptides were determined in Mueller Hinton (MH) medium (Difco Laboratories, Detroit, MI, USA) by the broth microdilution assay following recommendations of the Clinical and Laboratory Standards Institute (CLSI, formerly NCCLS) with some modifications. Minimum bactericidal concentration (MBC) was defined as the concentration that caused a 3-log viability decrease in the initial inoculum and was calculated by colony counts on TSA plates incubated for 24 h at 37 °C.

[2] = tested on: P. aeruginosa PAO1; assay: Time-kill curves (T3log); assay type: cell-based, Pseudomonas aeruginosa; settings: MH, 37 °C with shaking, sampling 15 min to 6 h
Protocol: Time-kill studies were determined with glass tubes containing 10 ml of MH and different concentrations of the peptides (1, 2 and 4 times their MIC). Overnight cultures of P. aeruginosa PAO1 in TSB were adjusted at 5 × 10^7 CFU/ml turbidimetrically. This […] suspension was diluted in the MH tubes (1:50) for the time-kill assay. Tubes were incubated at 37 °C with shaking and samples were taken at the following time points after the beginning of incubation: 15 min, 30 min, 45 min, 1 h, 2 h, 4 h and 6 h. Each sample was serially diluted and plated. The lower limit of detection was 30 CFU/ml (1.5 × log10 CFU/ml).
To quantify the killing efficiency of the treatments, the parameter T3log (defined as the time required for the treatment to decrease 3 logs the initial inoculum) was used.

[3] = tested on: S. aureus; assay: MIC against S. aureus; assay type: cell-based; settings: data not shown
[4] = tested on: P. aeruginosa PAO1 biofilms; assay type: cell-based, Pseudomonas aeruginosa; settings: 10XMIC, 24 h at 37 °C, biofilms grown in microplates (static conditions)
Protocol: In the microplate based assay, biofilms were grown with no fluid shear and the anti-biofilm activity of peptides was assessed as previously described with some modifications. Briefly, overnight cultures of P. aeruginosa PAO1 in TSB were adjusted at 5 × 10^7 CFU/ml turbidimetrically. This suspension was diluted in TSB (1:100) and 100 μl aliquots were added to the wells of a 96-well plate. After 24 h incubation at 37 °C, planktonic bacteria were removed by gently inverting the plate and then the biofilm-containing wells were washed with saline (0.85 % NaCl). The antimicrobial compound was serially diluted in Mueller Hinton (MH) at final concentrations higher than its planktonic MIC and 200 μl of each dilution was added to the wells. After 24 h incubation at 37 °C, biofilms were stained with either MTT (Sigma, St. Louis, MO, USA) or crystal violet (CV). As control, duplicate biofilms were incubated with MH containing no antimicrobial.
To quantify the disinfection (or bactericidal) activity of the antimicrobials on the biofilms, the MTT assay was used and performed as follows. After the treatment, the biofilms were rinsed with saline and 200 μl of a 0.5 mg/ml dilution of MTT in MH, was added to the wells. Incubation of biofilm with MTT was carried out during 4 h at 37 °C with no shaking. As a measure of cell viability, the conversion of MTT to a […] was determined by solubilizing the salt in 100 μl/well of DMSO and reading the absorbance of the resulting solution at 540 nm.
Both the disinfection and removal activity of antimicrobials were expressed as “activity percentage”, a parameter that was calculated using the following formula: ActivityPercentage=C−B−T−B/C−B×100
Where C is the absorbance value of the control well with non-treated biofilm, T corresponds to the absorbance value of the well with treated biofilm and B is the blank well (i.e. with no biofilm).

[5] = tested on: P. aeruginosa PAO1 pMF230 biofilm; assay: CDC-reactor biofilm assay, confocal laser scanning microscopy (GFP/PI); assay type: cell-based, Pseudomonas aeruginosa; settings: 10XMIC, 60 min, CLSM, determined by volume
Protocol: (§1) Briefly, 1 ml of an overnight culture of P. aeruginosa PAO1 pMF230 was inoculated into 350 ml of TSB and this suspension was used to fill the reactor chamber. After 24 h of growth in batch culture at 37 °C with magnetic agitation, a continuous flow of TSB (3 g/l) was applied to the reactor chamber at a rate of 11 ml/min. Under these conditions, a dense biofilm develops on the surface of small disks called coupons that are constantly bathed in fresh culture medium. After 24 h incubation, the coupons were removed from the chamber and planktonic cells were eliminated by rinsing the coupons with saline. […]
(§2) For the microscopic assessment of anti-biofilm activity, biofilms grown and treated on coupons as detailed above were soaked in a 120 μM solution of propidium iodide (PI, live/dead® Baclight™ bacterial viability kit, Invitrogen, Carlsbad, CA, USA) in filter-sterilized distilled water and incubated for 15 min at room temperature. Then, coupons were rinsed in filter-sterilized distilled water and their surface was examined by fluorescence microscopy using FITC filter (green fluorescence: λexcitation, 499 nm; λemission, 519 nm) and TRITC filter (red fluorescence: λexcitation, 552 nm; λemission, 578 nm). […] Microscope images were analyzed with the software Imaris® × 64 5.7.2. […]

[6] = tested on: HeLa cells; assay: Cytotoxicity assay (MTT); assay type: cell-based
Protocol: Cytotoxicity was assayed on HeLa cells using the MTT [3-(4,5-dimethylthiazoyl-2-yl) 2,5 diphenyltetrazolium bromide protocol. Cells were grown in Dulbeccos’s modified Eagle’s medium (DMEM) and adjusted to a concentration of 10^5 cells/ml (MTT) in 96 wells polystyrene plates. Plates were incubated for 24 h at 37 °C in 5 % CO2, then supplemented with increasing amounts of peptides diluted in 2 mM Hepes pH 7.2, and incubation carried on for 24 h under the same conditions. After this time, filter-sterilized MTT was added in different plates. After 3 h, the content of the wells was gently solved and mixed with 100 μl of DMSO (MTT). Absorbance was measured at 540 nm. Compound cytotoxicity was expressed as LC50, the concentration of the compound that is lethal to 50 % of the cells.

[7] = tested on: P. aeruginosa PAO1 pMF230 biofilm; assay: CDC-reactor biofilm assay, fluorescence microscopy (GFP/PI); assay type: cell-based, Pseudomonas aeruginosa; settings: 10XMIC, 60 min, CDC-reactor coupons; compared with 24 h microplate assay
Protocol: as §1, §2

SMILES	MBC (minimal bactericidal concentration) [1]	MIC (minimal inhibitory concentration) [1]	T3log at 1X MIC (time needed to decrease 3 logs the initial inoculum) [2]	T3log at 2X MIC (time needed to decrease 3 logs the initial inoculum) [2]	T3log at 4X MIC (time needed to decrease 3 logs the initial inoculum) [2]	MIC against S. aureus compared with non-acylated counterpart [3]	Disinfection activity (biofilm-forming bacteria killed, MTT test) [4]	Percentage of dead (red) cells in the biofilm volume [5]	LC50 expressed as multiple of the MIC [6]	LC50 (concentration lethal to 50 % of the cells) ([6]; HeLa cells, 24 h, MTT)	Anti-biofilm activity under static and dynamic conditions (fluorescence microscopy) [7]
CCC(C)CCCCC(=O)N[C@@H](Cc1ccccc1)C(=O)N[C@@H](Cc1c[nH]c2ccccc12)C(=O)N[C@@H](CCCNC(=N)N)C(=O)N[C@@H](CCCNC(=N)N)C(=O)N[C@@H](Cc1ccccc1)C(=O)N[C@@H](Cc1c[nH]c2ccccc12)C(=O)N[C@@H](CCCNC(=N)N)C(=O)N[C@@H](CCCNC(=N)N)C(N)=O (stereo partly shown) [6-MO-LF11-227] ({Octanoyl(6-Me)}-FWRRFWRR-NH2)	128 µg/mL (≈ 88.3 µM)	128 µg/mL (≈ 88.3 µM)	10 minutes	10 minutes	10 minutes	eight times lower	–	–	–	–	–
CC[C@H](C)[C@H](NC(=O)[C@H](CCCNC(=N)N)NC(=O)[C@@H](NC(=O)[C@H](CCCNC(=N)N)NC(=O)[C@H](Cc1c[nH]c2ccccc12)NC(=O)[C@H](Cc1ccccc1)NC(=O)[C@@H]1CCCN1C(=O)C(C)(C)CC)[C@@H](C)CC)C(=O)N[C@@H](CCCNC(=N)N)C(=O)N[C@@H](CCCNC(=N)N)C(N)=O [DI-MB-LF11-322, 2,2-dimethylbutanoyl-PFWRIRIRR] ({Butanoyl(2,2-Me2)}-PFWRIRIRR-NH2)	32 µg/mL (≈ 22.9 µM)	32 µg/mL (≈ 22.9 µM)	12 minutes	11 minutes	10 minutes	–	medium-range disinfection activity	99.81%	~2 XMIC	80 µg/mL	potent anti-biofilm activity
